Converted amounts (≈) assume the structure as drawn.
Conditions: buffer; pH 7.4; 200.0 µM

Row | SMILES | solubility kinetic [µg/mL]
1 | O=C(Nc1cccc2cccnc12)c1ccc(Br)cc1Br | < 0.4
2 | O=S(=O)(Nc1cccc(S(=O)(=O)N2CCCCCC2)c1)c1ccc(F)cc1F | > 64.6
3 | COc1ccc(Cn2c(=S)[nH]c3ccccc3c2=O)cc1 | < 0.3
4 | Cn1c(=O)c2c(nc(NNC(=O)C(F)(F)F)n2C)n(C)c1=O | > 48
5 | CCc1ccc(CCC(=O)Nc2ccc(Br)cc2)o1 | 4.4 (≈ 13.7 µM)
6 | CCNC(=O)NC(=O)CN(C)c1ccccc1 | > 35.3
7 | CCC(=O)NN1CCN(c2ccncc2S(=O)(=O)N2CCCCC2)CC1 | > 57.2
8 | Cc1ccc(S(=O)(=O)NCCSc2ncccn2)cc1 | > 46.4
9 | O=Cc1c(NCc2ccccc2)c2ccccc2[nH]c1=O | 20.7 (≈ 74.4 µM)
10 | O=C(COC(=O)c1cc(Cl)ccc1Cl)NC1CCCC1 | 23.8 (≈ 75.3 µM)
11 | CC(=O)N1CCN(c2ccc(S(=O)(=O)N3CCOCC3)cc2[N+](=O)[O-])CC1 | > 59.8
12 | CCOC(=O)c1cc2c(cn1)[nH]c1ccccc12 | 7.5 (≈ 31.2 µM)
13 | CCOC(=O)c1ccc(NS(=O)(=O)c2cn(C)cn2)cc1 | > 46.4
14 | Cc1ccc(SCC(=O)NCCc2ccccc2)cc1 | 20.7 (≈ 72.5 µM)
15 | COC(=O)c1ccccc1NC(=O)NN1CCN(C)CC1 | > 43.9
16 | OCC1OC(Oc2c[nH]c3ccccc23)C(O)C(O)C1O (centres undefined) | > 44.3
17 | CCOC(=O)C1CCN(C(=O)COC(=O)/C=C/c2ccc([N+](=O)[O-])cc2)CC1 | 18.7 (≈ 47.9 µM)
18 | O=C(Nc1ccccc1Cl)c1cccc(NC(=O)C2CCCC2)c1 | 26.9 (≈ 78.5 µM)
19 | Cc1noc2ncnc(N3CCCCC3)c12 | 27.8 (≈ 127 µM)
20 | CCc1cccc(C)c1NC(=O)COC(=O)CC1CCCC1 | 15.7 (≈ 51.7 µM)

Row | SMILES | solubility kinetic [µg/mL]
21 | Br.Fc1ccc(-c2csc(NC3=NCCC3)n2)cc1 | 43
22 | Cc1csc(SCC(=O)Nc2nccs2)n1 | > 40.7
23 | COc1ccc(C)cc1Nc1c2c(nc3ccccc13)CCC2 | > 45.7
24 | CC(=O)c1cccc(NC(=S)NCc2ccco2)c1 | 33.7 (≈ 123 µM)
25 | CCOC(=O)C1CCN(c2c(NCCC(C)C)c(=O)c2=O)CC1 | > 48.4
26 | Cc1ccc2[nH]c(=S)n(-c3cccnc3)c(=O)c2c1 | 2.8 (≈ 10.4 µM)
27 | CCc1ccccc1NC(=O)CNC(=O)c1ccc(OCc2cn3ccccc3n2)cc1 | 7.6 (≈ 17.7 µM)
28 | COc1ccc(OCCN2C(=O)c3ccccc3C2=O)c([N+](=O)[O-])c1 | 1 (≈ 2.92 µM)
29 | CCN(CC)C(=O)c1c(-c2ccccc2)oc2ccc(O)cc12 | 31.8 (≈ 103 µM)
30 | CC(OC(=O)C1=COCCO1)C(=O)NC1(C#N)CCCCC1 (centres undefined) | 45.7 (≈ 148 µM)
31 | Cc1ccoc1C(=O)N1CCN(C(=O)c2occc2C)CC1 | > 45.3
32 | O=C(Nc1ccc(F)c(Cl)c1)C1CCCC1 | 13.5 (≈ 55.9 µM)
33 | O=C(Oc1ccc(C(=S)N2CCOCC2)cc1)c1cccc([N+](=O)[O-])c1 | < 0.4
34 | Cc1ccc(S(=O)(=O)N(C)CC(=O)OCC(=O)NCCc2ccc(S(N)(=O)=O)cc2)cc1 | > 72.5
35 | O=[N+]([O-])c1ccc(N(CC2CO2)S(=O)(=O)c2ccccc2)cc1 (centres undefined) | 41.9 (≈ 125 µM)
36 | C=CCOc1ccc(/C=C/C(=O)OCC(=O)N2CCN(C(C)=O)CC2)cc1 | > 55.9
37 | Cc1ccc(Cl)c(N/C=C/C(=O)c2ccccc2)c1 | < 0.6
38 | [Br-].c1ccc(-c2c[n+]3c(n2-c2ccccc2)CCC3)cc1 | > 51.2
39 | Cc1c(-c2ccc(Br)cc2)[n+](=O)c2c(n1[O-])CCCC2 | > 50.3
40 | O=C(OCC(=O)N1CCN(C(=O)c2ccco2)CC1)c1ccc(Cl)nc1 | > 56.7

Row | SMILES | solubility kinetic [µg/mL]
41 | COC(=O)c1cc(C(=O)c2ccc(C(C)(C)C)cc2)c[nH]1 | 18.2 (≈ 63.8 µM)
42 | COc1cccc(CNC(=O)N[C@@H](C)C(=O)O)c1 | > 37.8
43 | COC(=O)c1ccc(NC(=O)C2C3C=CC(C3)C2C(=O)O)cc1 (centres undefined) | > 47.3
44 | Br.CCCN(CCC)C1CCc2cccc(O)c2C1 (centres undefined) | > 49.2
45 | CC(=O)c1ccc(NC(=S)N2CCN(c3ccccn3)CC2)cc1 | 3.1 (≈ 9.11 µM)
46 | CCOc1ccccc1NC(=O)CN1C(=O)COc2ccc(C)cc21 | 2.4 (≈ 7.05 µM)
47 | CN(C)CCCNC(=O)C(=O)NCC1CCCO1 (centres undefined) | > 38.6
48 | COc1ccc(NS(=O)(=O)c2cccc(C(=O)Nc3ccccc3C(=O)O)c2)cc1 | > 64
49 | Cc1ccc(C)c(NC(=O)c2nc(Cl)ccc2Cl)c1 | 3.2 (≈ 10.8 µM)
50 | Cc1c(C(=O)N(C)CCn2ccnc2C)oc2c(F)cccc12 | 38.1 (≈ 121 µM)
51 | COc1cc([N+](=O)[O-])ccc1NC(=O)N1CCCCCC1 | 32.1 (≈ 109 µM)
52 | C/C(=C/c1ccccc1)C(=O)N1CCN(c2ccc(F)cc2)CC1 | 36.1 (≈ 111 µM)
53 | Cc1ccc(SCC(=O)N2CCN(c3ccccn3)CC2)cc1 | 43.8 (≈ 134 µM)
54 | S=C(Nc1ccccc1)Nc1ccccc1-n1cccc1 | 34.2 (≈ 117 µM)
55 | O=C1N(Cc2ccccc2)c2ccccc2C12OCCO2 | 28.9 (≈ 103 µM)
56 | O=C(CCCc1ccccc1)NCc1ccc2c(c1)OCO2 | > 44.6
57 | CCOc1ccc(C(=O)N2CCn3c2nc2ccccc23)cc1 | 6.4 (≈ 20.8 µM)
58 | O=C(Nc1cccnc1Cl)c1ccc(=O)oc1 | > 37.6
59 | O=C1CC(Sc2ncccc2C(=O)O)C(=O)N1 (centres undefined) | > 37.8

Reference: PubChem BioAssay AID1996
